Common to all, as to assay: In vitro cytotoxicity GI50, Example 48
Common to all, as to format: cell-based

Assay [1] deals with HCT-116 (COLON). As to conditions: Homo sapiens, HCT-116, HCT-116; Alamar Blue or Sulfarhodamine B. Here is the method:
The study was performed using either Alamar Blue or Sulfarhodamine B assays.

For assay [2], the system named is H460 (NSCLC). Particulars: Homo sapiens, NCI-H460; H460; Alamar Blue or Sulfarhodamine B; read-out: GI50.
In assay [3] the test system is HT-29 (COLON). Particulars: Homo sapiens, Alamar Blue or Sulfarhodamine B. On the technique in general: Resazurin is reduced to fluorescent resorufin, in cell work by metabolically active cells.
The subject of assay [4] is HCT-15 (COLON). As to conditions: Homo sapiens, Alamar Blue or Sulfarhodamine B.
Assay [5] concerns SKOV-3 (OVARIAN). Particulars: Homo sapiens, SK-OV-3, Alamar Blue or Sulfarhodamine B.

Take `CCc1c2c(nc3ccc(OC(=O)CC4(CC(=O)Oc5c(C)c(C)c6c(c5C)CC[C@@](C)(CCC[C@H](C)CCC[C@H](C)CCCC(C)C)O6)CCCC4)cc13)-c1cc3c(c(=O)n1C2)COC(=O)[C@]3(O)CC` [d-α-Tocopherol-3,3-tetramethyleneglutarate-7-ethyl-10-hydroxycamptothecin]: the results for the GI50 in assay [1], in assay [2] and in assay [3] were 214 nM, 560 nM and 48 nM, respectively.
On to `CC[C@@]1(O)C(=O)OCc2c1cc1n(c2=O)Cc2cc3cc(OC(=O)CCC(=O)Oc4c(C)c(C)c5c(c4C)CC[C@@](C)(CCC[C@H](C)CCC[C@H](C)CCCC(C)C)O5)ccc3nc2-1` [VESA-10-HO-CPT, Butanedioic acid, (2R)-3,4-dihydro-2,5,7,8-tetramethyl-2-[(4R,8R)-4,8,12-trimethyltridecyl]-2H-1-benzopyran-6-yl (4S)-4-ethyl-3,4,12,14-tetrahydro-4-hydroxy-3,14-dioxo-1H-pyrano[3′,4′:6,7]indolizino[1,2-b]quinolin-9-yl ester], for which the GI50 (usually the concentration giving 50% growth inhibition) in assay [1] was 186 nM; in assay [2], 155 nM; in assay [4], 1290 nM; in assay [5], 97.7 nM.

These data come from patent publication US20080045559A1, “TOCOPHEROL-MODIFIED THERAPEUTIC DRUG COMPOUNDS” (SONUS PHARMACEUTICALS, INC., priority 2003, published 2008).
